Tests used:
Klebsiella pneumoniae = assay: Anti-infectious protection of mice against Klebsiella pneumoniae infection; assay type: in vivo; settings: compound iv. 100 μg at -24 h; for % protection: difference of % survivors vs controls; for % survival D + 3 / % survival D + 5 / % survival D + 10: mice
[1] = tested on: bovine serum albumin (BSA); assay: Adjuvant activity in aqueous phase: anti-albumin antibody titer by passive hemagglutination; assay type: in vivo, Swiss mice; settings: S.C., 100 μg with BSA 0.5 mg/animal in isotonic saline; for Titer of antibody 28th day: Swiss mice; for Titer of antibody 34th day / Titer of antibody 36th day: booster 0.1 mg BSA at day 30
Method: In the series of tests of which the results are indicated hereafter, the influence of the active principle according to the invention was assessed as bearing on the anti-albumin antibody rate, particularly under the following conditions. Groups of 8 two-month-old Swiss mice received by subcutaneous injection (SC) or orally (PO) 0.5 mg of antigen constituted by the bovine serum albumin (BSA) with or without the substance tested in an isotonic saline solution. This large dose of antigen, because of its closeness to the limit paralysing dose with respect to the immunising response, elicits but a weak or no immune response in the controls; it therefore constitutes a severe criterion for showing the activity of an adjuvant substance. […] The proportion of antibody was determined by passive hemagglutination by using sheep red blood cells treated with formalin and coated with the antigen studied according to the method described by […] and […]. Immunol., 100, 641-648, 1968). Blood samples were taken 14, 28, 34 and 36 days after the first injection.

## CC(=O)N[C@H]1C(O)O[C@H](COC(C)=O)[C@@H](OC(C)=O)[C@@H]1O[C@H](C)C(=O)N[C@@H](C)C(=O)N[C@H](CCC(=O)O)C(N)=O (stereo partly drawn) [4,6-di-O-acetyl-Mur-NAc-L-Ala-D-Glu (OH)-NH2]
Klebsiella pneumoniae; K. pneumoniae im. 2 × 10^4
  % protection: 47%
  % survival D + 3: 97%
  % survival D + 5: 84%
  % survival D + 10: 63%

## CC(=O)N[C@H]1C(O)O[C@H](COC(=O)CCC(=O)O)[C@@H](O)[C@@H]1O[C@H](C)C(=O)N[C@@H](C)C(=O)N[C@H](CCC(=O)O)C(N)=O (stereo partly drawn) [6-O-succinyl-Mur-NAc-L-Ala-D-Glu, (OH)-NH2]
Klebsiella pneumoniae; K. pneumoniae im. 2 × 10^4
  % protection: 44%
  % survival D + 3: 100%
  % survival D + 5: 91%
  % survival D + 10: 63%

## CC(=O)N[C@@H]1[C@@H](O[C@H](C)C(=O)N[C@@H](C)C(=O)N[C@H](CCC(=O)O)C(N)=O)[C@H](O)[C@@H](CO)O[C@H]1O [Mur-NAc-L-Ala-D-Glu(OH)--NH2, Mur-NAc-L-Ala-D-Glu(OH)-NH2, reference compound]
[1]
  Titer of antibody 28th day: 25
  Titer of antibody 34th day: 50
  Titer of antibody 36th day: 400
Klebsiella pneumoniae; K. pneumoniae im. 1,5 × 10^4
  % protection: 47%
  % survival D + 3: 83%
  % survival D + 5: 66%
  % survival D + 10: 60%

## CC(=O)N[C@H]1C(O)O[C@H](CO)[C@@H](O)[C@@H]1OCC(=O)N[C@@H](C)C(=O)N[C@H](CCC(=O)O)C(N)=O (stereo partly drawn) [norMur-NAc-L-Ala-D-Glu(OH)-NH2, 2-(2-acetamido-2-deoxy-3-O-D-glucopyranosyl)-acetyl-L-alanyl-D-isoglutamine]
[1]
  Titer of antibody 28th day: 25
  Titer of antibody 34th day: 50
  Titer of antibody 36th day: 350
Klebsiella pneumoniae; K. pneumoniae im. 1,5 × 10^4
  % protection: 47%
  % survival D + 3: 78%
  % survival D + 5: 64%
  % survival D + 10: 60%
